ChEMBL document CHEMBL1201862, “PubChem BioAssay data set” (2004)
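Interpolation was linear, between the two tested concentrations surrounding the appropriate level; five concentrations were tested over 48 hours in 96-well plates. At the GI50, growth is halved.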 Calls of active or inactive are those of the source. Rule as the data show it: active = GI50 up to about 1.1 µM and inactive = higher.

Columns and labels:
Assay in all cases: NCI-60 cell line screen, 48 h
[1] = system: HOP-18
[2] = system: LXFL 529
[3] = system: DMS-114
[4] = system: DMS-273
[5] = system: DLD-1
[6] = system: M19-MEL
[7] = system: KM-20L2
[8] = system: XF498
[9] = system: RXF 631

Compound: CC(=O)CCn1[nH]c(=O)c(Cl)c(Cl)c1=O
- GI50 [1]: > 100 µM (inactive)
- GI50 [2]: > 100 µM (inactive)
- GI50 [3]: > 100 µM (inactive)
- GI50 [4]: > 100 µM (inactive)
- GI50 [5]: > 100 µM (inactive)
- GI50 [6]: > 100 µM (inactive)
- GI50 [7]: > 100 µM (inactive)
- GI50 [8]: > 100 µM (inactive)

Compound: O=[N+]([O-])c1ccc2nc3ccscc-3c2c1
- GI50 [1]: 14.1 µM (inactive)
- GI50 [2]: 13.7 µM (inactive)
- GI50 [3]: 16.9 µM (inactive)
- GI50 [9]: 14.8 µM (inactive)
- GI50 [4]: 12.2 µM (inactive)
- GI50 [5]: 9.64 µM (inactive)
- GI50 [6]: 20.1 µM (inactive)
- GI50 [7]: 25.2 µM (inactive)
- GI50 [8]: 17.1 µM (inactive)

Compound: O=[N+]([O-])c1ccc2c(Nc3ccccc3-c3ccccc3Nc3c4ccccc4nc4cc([N+](=O)[O-])ccc34)c3ccccc3nc2c1
- GI50 [1]: > 100 µM (inactive)
- GI50 [2]: 2.61 µM (inactive)
- GI50 [3]: 11.1 µM (inactive)
- GI50 [9]: 5.9 µM (inactive)
- GI50 [4]: 4.58 µM (inactive)
- GI50 [5]: 2.63 µM (inactive)
- GI50 [6]: 6.56 µM (inactive)
- GI50 [7]: 5.32 µM (inactive)
- GI50 [8]: 1.59 µM (inactive)

Compound: O=C1/C(=C/c2cccc([N+](=O)[O-])c2)COc2ccccc21
- GI50 [1]: 4.55 µM (inactive)
- GI50 [2]: 2.43 µM (inactive)
- GI50 [3]: 2.84 µM (inactive)
- GI50 [9]: 6 µM (inactive)
- GI50 [4]: 1.95 µM (inactive)
- GI50 [5]: 2.94 µM (inactive)
- GI50 [6]: 2.32 µM (inactive)
- GI50 [7]: 4.99 µM (inactive)

Compound: Cc1cc(N(CCC#N)CCC#N)ccc1/N=N/c1ccc([N+](=O)[O-])cc1
- GI50 [3]: 19 µM (inactive)
- GI50 [4]: 17 µM (inactive)
- GI50 [6]: > 100 µM (inactive)
- GI50 [7]: > 100 µM (inactive)

Compound: O=C(O)[C@@H]1CCCC[C@@H]1C(=O)N(C1CCCCC1)C1CCCCC1
- GI50 [2]: > 100 µM (inactive)
- GI50 [3]: > 100 µM (inactive)
- GI50 [9]: > 100 µM (inactive)
- GI50 [4]: > 100 µM (inactive)
- GI50 [5]: > 100 µM (inactive)
- GI50 [6]: > 100 µM (inactive)
- GI50 [7]: > 100 µM (inactive)

Compound: CCOC(=O)C1=C(Nc2ccc(NC3=C(C(=O)OCC)C(=O)CS3)cc2)SCC1=O
- GI50 [2]: 22.1 µM (inactive)
- GI50 [3]: 22.6 µM (inactive)
- GI50 [4]: 20.7 µM (inactive)
- GI50 [5]: 20.7 µM (inactive)
- GI50 [6]: 21.7 µM (inactive)
- GI50 [7]: 35.2 µM (inactive)
- GI50 [8]: 13.5 µM (inactive)

Compound: CCOC(=O)C(=O)Nc1c(C)cccc1CC
- GI50 [1]: > 100 µM (inactive)
- GI50 [2]: > 100 µM (inactive)
- GI50 [3]: > 100 µM (inactive)
- GI50 [9]: > 100 µM (inactive)
- GI50 [5]: > 100 µM (inactive)
- GI50 [6]: > 100 µM (inactive)
- GI50 [7]: > 100 µM (inactive)
- GI50 [8]: > 100 µM (inactive)

Compound: N#CN1CCC=C(c2cc3ccccc3[nH]2)C1
- GI50 [1]: > 448 µM (inactive)
- GI50 [2]: 236 µM (inactive)
- GI50 [9]: 281 µM (inactive)
- GI50 [4]: 428 µM (inactive)
- GI50 [5]: 370 µM (inactive)
- GI50 [6]: 243 µM (inactive)
- GI50 [7]: > 448 µM (inactive)

Compound: CC1(C)C(=O)C(C)(C)C1=NNC(N)=S
- GI50 [2]: > 100 µM (inactive)
- GI50 [3]: > 100 µM (inactive)
- GI50 [9]: > 100 µM (inactive)
- GI50 [4]: > 100 µM (inactive)
- GI50 [6]: > 100 µM (inactive)
- GI50 [7]: > 100 µM (inactive)
- GI50 [8]: > 100 µM (inactive)

Compound: CC1CCC2(C(=O)O)CCC3(C)C(=CCC4C5(C)CCC(O)C(C)(C)C5CCC43C)C2C1C (stereo not drawn)
- GI50 [1]: 15.5 µM (inactive)
- GI50 [3]: 9.42 µM (inactive)
- GI50 [4]: 10.9 µM (inactive)
- GI50 [5]: 6.53 µM (inactive)
- GI50 [6]: 8.17 µM (inactive)
- GI50 [7]: 8.24 µM (inactive)
- GI50 [8]: 5.86 µM (inactive)

Compound: NC(=S)N/N=C(\CC1OC(=O)c2ccccc21)c1ccc(Cl)cc1 (stereo not drawn)
- GI50 [2]: 28.8 µM (inactive)
- GI50 [3]: 24.6 µM (inactive)
- GI50 [9]: 24 µM (inactive)
- GI50 [4]: 41 µM (inactive)
- GI50 [5]: 41.3 µM (inactive)
- GI50 [6]: 21.9 µM (inactive)
- GI50 [7]: 47 µM (inactive)
- GI50 [8]: 47 µM (inactive)

Compound: O=C1N2Cc3c4ccc5c3CN3C(=O)N6Cc7c(ccc(c7CN1C6(c1ccccc1)C23c1ccccc1)OCCOCCNCCOCCO4)OCCOCCNCCOCCO5 (stereo not drawn)
- GI50 [1]: 14.4 µM (inactive)
- GI50 [2]: 13.7 µM (inactive)
- GI50 [3]: > 100 µM (inactive)
- GI50 [9]: 31.4 µM (inactive)
- GI50 [4]: 41.2 µM (inactive)
- GI50 [5]: > 100 µM (inactive)
- GI50 [6]: 24.9 µM (inactive)
- GI50 [7]: 52.4 µM (inactive)
- GI50 [8]: 60.1 µM (inactive)

Compound: COc1cc(C(=O)CC2(O)C(=O)Nc3c(Cl)cc(Cl)cc32)ccc1O (stereo not drawn)
- GI50 [1]: 34.4 µM (inactive)
- GI50 [2]: 27.9 µM (inactive)
- GI50 [3]: 37.8 µM (inactive)
- GI50 [9]: > 100 µM (inactive)
- GI50 [4]: 53 µM (inactive)
- GI50 [5]: 41.9 µM (inactive)
- GI50 [7]: 61.4 µM (inactive)
- GI50 [8]: 48.3 µM (inactive)

Compound: Cc1ccc(S(=O)(=O)C(C#N)c2nc3ccccc3nc2-n2ccnc2)cc1 (stereo not drawn)
- GI50 [1]: > 100 µM (inactive)
- GI50 [2]: > 100 µM (inactive)
- GI50 [3]: > 100 µM (inactive)
- GI50 [4]: > 100 µM (inactive)
- GI50 [5]: > 100 µM (inactive)
- GI50 [6]: > 100 µM (inactive)
- GI50 [8]: > 100 µM (inactive)

Compound: COCOCC/C=C/C=O
- GI50 [1]: > 100 µM (inactive)
- GI50 [2]: > 100 µM (inactive)
- GI50 [3]: > 100 µM (inactive)
- GI50 [5]: > 100 µM (inactive)
- GI50 [7]: > 100 µM (inactive)
- GI50 [8]: > 100 µM (inactive)

Compound: CN(C)CC(C)(C)C(=O)/C=C/c1ccccc1
- GI50 [1]: 17.1 µM (inactive)
- GI50 [2]: 12.3 µM (inactive)
- GI50 [3]: 14.2 µM (inactive)
- GI50 [4]: 16.9 µM (inactive)
- GI50 [5]: 12.6 µM (inactive)
- GI50 [6]: 16.3 µM (inactive)
- GI50 [7]: 15.3 µM (inactive)
- GI50 [8]: 11.6 µM (inactive)

Compound: COc1ccccc1NC(=O)C(CC(C(=O)Nc1ccccc1OC)/C(C)=N/Nc1ccc([N+](=O)[O-])cc1[N+](=O)[O-])/C(C)=N/Nc1ccc([N+](=O)[O-])cc1[N+](=O)[O-] (stereo not drawn)
- GI50 [1]: > 95.3 µM (inactive)
- GI50 [2]: 32.4 µM (inactive)
- GI50 [9]: 40.6 µM (inactive)
- GI50 [4]: 56 µM (inactive)
- GI50 [5]: 80.4 µM (inactive)
- GI50 [6]: > 100 µM (inactive)
- GI50 [7]: > 100 µM (inactive)
- GI50 [8]: 51.6 µM (inactive)

Compound: CCN(C(=N)C#N)c1ccccc1
- GI50 [1]: > 100 µM (inactive)
- GI50 [2]: > 100 µM (inactive)
- GI50 [3]: > 54.8 µM (inactive)
- GI50 [9]: > 100 µM (inactive)
- GI50 [4]: > 42.5 µM (inactive)
- GI50 [5]: > 40.7 µM (inactive)
- GI50 [6]: > 55.1 µM (inactive)
- GI50 [7]: > 100 µM (inactive)

Compound: NC1(C(=O)O)CCC(C(=O)O)CC1 (stereo not drawn)
- GI50 [1]: > 100 µM (inactive)
- GI50 [2]: > 100 µM (inactive)
- GI50 [3]: > 100 µM (inactive)
- GI50 [9]: > 100 µM (inactive)
- GI50 [4]: > 100 µM (inactive)
- GI50 [5]: > 100 µM (inactive)
- GI50 [6]: > 100 µM (inactive)
- GI50 [7]: > 100 µM (inactive)
- GI50 [8]: > 100 µM (inactive)

Compound: CC(=O)[C@]1(O)Cc2c(O)c3c(c(O)c2[C@@H](OC2CC(N)C(O)C(C)O2)C1)C(=O)c1c(OCc2ccccc2)cccc1C3=O (stereo partly drawn)
- GI50 [1]: 1.71 µM (inactive)
- GI50 [2]: 1.14 µM (inactive)
- GI50 [3]: 1.36 µM (inactive)
- GI50 [4]: 0.302 µM (active)
- GI50 [7]: 1.15 µM (inactive)
- GI50 [8]: 1.6 µM (inactive)

Compound: O=c1c2ccccc2nc2n1-c1ccccc1SC2
- GI50 [2]: 34.4 µM (inactive)
- GI50 [3]: 34.7 µM (inactive)
- GI50 [9]: 93.5 µM (inactive)
- GI50 [4]: 47.2 µM (inactive)
- GI50 [5]: 55.5 µM (inactive)
- GI50 [6]: 67.1 µM (inactive)
- GI50 [7]: > 100 µM (inactive)
- GI50 [8]: 30.6 µM (inactive)

Compound: C=CC1(C)/C(=N\O)C(C)(CC)C(=O)N1O (stereo not drawn)
- GI50 [1]: > 100 µM (inactive)
- GI50 [2]: > 100 µM (inactive)
- GI50 [3]: > 100 µM (inactive)
- GI50 [9]: > 100 µM (inactive)
- GI50 [4]: > 100 µM (inactive)
- GI50 [5]: > 100 µM (inactive)
- GI50 [6]: > 100 µM (inactive)
- GI50 [8]: > 100 µM (inactive)

Compound: CNS(=O)(=O)NNS(=O)(=O)c1ccc(C)cc1
- GI50 [3]: > 100 µM (inactive)
- GI50 [5]: > 100 µM (inactive)
- GI50 [6]: > 100 µM (inactive)
- GI50 [7]: > 100 µM (inactive)

Compound: Cc1cccc(C)c1NC(=O)CCCC(=O)CC(=O)/C=C/c1ccccc1
- GI50 [1]: > 100 µM (inactive)
- GI50 [2]: > 100 µM (inactive)
- GI50 [3]: > 100 µM (inactive)
- GI50 [9]: > 100 µM (inactive)
- GI50 [4]: > 100 µM (inactive)
- GI50 [5]: > 100 µM (inactive)
- GI50 [6]: > 100 µM (inactive)
- GI50 [7]: > 100 µM (inactive)
- GI50 [8]: > 100 µM (inactive)

Compound: CC(Oc1ccc(Oc2cnc3ccc(Cl)cc3n2)cc1)C(=O)O (stereo not drawn)
- GI50 [1]: > 100 µM (inactive)
- GI50 [2]: > 100 µM (inactive)
- GI50 [3]: > 100 µM (inactive)
- GI50 [4]: > 100 µM (inactive)
- GI50 [5]: > 100 µM (inactive)
- GI50 [6]: > 100 µM (inactive)
- GI50 [7]: > 100 µM (inactive)
- GI50 [8]: > 100 µM (inactive)

Compound: Cc1cc(C2CCCCC2)n(O)c(=O)c1 [CICLOPIROX OLAMINE]
- GI50 [1]: 39.8 µM (inactive)
- GI50 [2]: 4.2 µM (inactive)
- GI50 [3]: 4.74 µM (inactive)
- GI50 [9]: 5.37 µM (inactive)
- GI50 [5]: 5.46 µM (inactive)
- GI50 [6]: 7.52 µM (inactive)
- GI50 [7]: 12 µM (inactive)
- GI50 [8]: 10.7 µM (inactive)
